Source: patent EP0059817A1, “Serpentine, alstonine and sempervirine drugs for the specific inhibition of tumurous and cancerous cells” (priority 1981, dated 1982)

Assays:
lymphome YC 8 = test: lymphoma YC 8 of the mouse, alstonine and cyclophosphamide; type: in vivo, souris BALB C; settings: cyclophosphamide seul
Ascite d'Ehrlich = test: Ehrlich ascites tumour in the mouse, serpentine, alstonine, cyclophosphamide; type: in vivo, souris blanches Swiss; settings: for survie (surviving mice/total): I.P., serpentine 400 µg par jour, cyclophosphamide 2 ma par jour
Text: Activité vis-à-vis des tumeurs "Ascite d'Ehrlich" chez la souris - 5 x 10^3 cellules Ascite d'Ehrlich sont inoculées à des souris blanches Swiss de 20-24 g, par voie intrapéritonéale.
Divers traitements furent appliqués dès le quatrième ou le cinquième jour et pendant dix à quinze jours. […] Un net ralentissement du développement des tumeurs est observé, mais les tumeurs repartent après arrêt du traitement dans le cas du cyclophosphamide seul, le redémarrage peut être plus tardif qu'avec la serpentine ou l'alstonine. Par contre, l'association de serpentine (400 µg par jour) et de cyclophosphamide (2 ma par jour) par voie I.P. permet d'obtenir une survie définitive (survie définitive : survie normale pendant trois mois sans perte de poids) et le pourcentage des survivants varie de 80 à 100% (Tableau IV ci-après). Les souris ainsi guéries augmentent normalement de poids et après quatre à six mois celui-ci est de 24-26 g. Leur aspect est absolument normal et rien ne les distingue de souris saines. (Dans les expériences, seule la survie sans récidive est prise en considération).
La figurer, où sont portés en abscisses le nombre de jours de traitement et en ordonnées le poids (en gramme) des souris, montre l'évolution de la tumeur d'Ehrlich chez les souris traitées, soit par la serpentine seule (courbe 2), soit par le cyclophosphamide seul (courbe 3), soit par la serpentine + cyclophosphamide (courbe 4) par voie intra- péritonéale et aux doses indiquées ci-dessus. […] Aucun de ces deux traitements ne permet d'obtenir une survie.définitive. Par contre, le mélange de serpentine et de cyclophosphamide permet d'obtenir une survie définitive.

O=P1(N(CCCl)CCCl)NCCCO1 (stereo not drawn) [cyclophosphamide]
outcome with cyclophosphamide alone (in words) (lymphome YC 8): après 1-3 mois, l'amaigrissement est tel qu'elles meurent
amaigrissement of the treated mouse (Ascite d'Ehrlich; cyclophosphamide seul, i.p.): amaigrissement très fort
survie (surviving mice/total) (Ascite d'Ehrlich; day 0): 6/6
survie (surviving mice/total) (Ascite d'Ehrlich; day 25): 6/6
survie (surviving mice/total) (Ascite d'Ehrlich; day 35): 6/6
survie (surviving mice/total) (Ascite d'Ehrlich; day 60): 2/6
survie (surviving mice/total) (Ascite d'Ehrlich; day 120): 0/6
definitive arrest of the Ehrlich ascites tumour (in words) (Ascite d'Ehrlich; each substance alone, treatment from day 4 or 5 for 10 to 15 days): ne peuvent définitivement arrêter la tumeur ascitique d'Ehrlich
évolution de la tumeur d'Ehrlich (figure, weight of mice against days of treatment) (Ascite d'Ehrlich; voie intrapéritonéale, doses as above, curves 2, 3, 4): net ralentissement du poids des tumeurs
